Measurements from the supplement of paper PMC10307832.

Assays:
Experiment in all cases: relative viability (nuclei count vs DMSO), 5 days (fraction); higher = more cells survive
AZD6482 + Dasatinib = compound: Cc1cc([C@@H](C)Nc2ccccc2C(=O)O)c2nc(N3CCOCC3)cc(=O)n2c1 [AZD6482] + Cc1nc(Nc2ncc(C(=O)Nc3c(C)cccc3Cl)s2)cc(N2CCN(CCO)CC2)n1 [Dasatinib] (partner 0.075 µM)
Method in brief: (§1)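 Each reported value is a median over duplicate plates. It expresses relative viability: treated-well nuclei count divided by vehicle-well nuclei count. Lung cancer cell lines in 1536-well plates were dosed by pin tool a day after seeding, alone with one drug or with a fixed anchor-drug dose plus five library-drug doses (not always all listed) in √10 steps, and nuclei were counted after 5 days.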

[1] = compound: COc1cc2nc(N3CCCN(C)CC3)nc(NC3CCN(Cc4ccccc4)CC3)c2cc1OC + COc1cccc2cc(-c3nc([C@H]4CC[C@H](C(=O)O)CC4)n4ncnc(N)c34)[nH]c12 [OSI-027] (partner 0.5 µM)
Method in brief: as §1

[2] = compound: COc1cc2nc(N3CCCN(C)CC3)nc(NC3CCN(Cc4ccccc4)CC3)c2cc1OC + CS(=O)(=O)N1CCN(Cc2cc3nc(-c4cccc5[nH]ncc45)nc(N4CCOCC4)c3s2)CC1 [Pictilisib] (partner 1 µM)
Method in brief: as §1

AZD6482 + Lapatinib = compound: Cc1cc([C@@H](C)Nc2ccccc2C(=O)O)c2nc(N3CCOCC3)cc(=O)n2c1 [AZD6482] + CS(=O)(=O)CCNCc1ccc(-c2ccc3ncnc(Nc4ccc(OCc5cccc(F)c5)c(Cl)c4)c3c2)o1 [Lapatinib] (partner 2 µM)
Method in brief: as §1

Cell Line	relative viability (AZD6482 + Dasatinib; first compound 0.08 µM)	relative viability (AZD6482 + Dasatinib; first compound 0.253 µM)	relative viability (AZD6482 + Dasatinib; first compound 0.8 µM)	relative viability (AZD6482 + Dasatinib; first compound 2.53 µM)	relative viability (AZD6482 + Dasatinib; first compound 8 µM)	relative viability ([1]; first compound 0.2 µM)	relative viability ([1]; first compound 0.6325 µM)	relative viability ([1]; first compound 2 µM)	relative viability ([1]; first compound 6.325 µM)	relative viability ([2]; first compound 0.2 µM)	relative viability ([2]; first compound 0.6325 µM)	relative viability ([2]; first compound 2 µM)	relative viability ([2]; first compound 6.325 µM)	relative viability (AZD6482 + Lapatinib; first compound 0.08 µM)	relative viability (AZD6482 + Lapatinib; first compound 0.253 µM)	relative viability (AZD6482 + Lapatinib; first compound 0.8 µM)	relative viability (AZD6482 + Lapatinib; first compound 2.53 µM)	relative viability (AZD6482 + Lapatinib; first compound 8 µM)
NCI-H2342	0.301	0.292	0.34	0.277	0.31	0.677	0.574	0.785	0.692	–	–	–	–	–	–	–	–	–
HCC-15	0.566	0.545	0.594	0.385	0.598	0.696	0.712	0.619	0.377	0.744	0.883	0.701	0.618	0.873	0.792	0.882	0.737	0.914
A-427	0.717	0.615	0.715	–	0.754	0.487	0.55	0.442	0.386	0.755	0.728	0.679	0.675	0.97	0.869	1.08	0.777	1.1
NCI-H2228	–	0.367	0.461	0.427	0.455	0.539	0.451	0.499	0.256	0.385	0.256	0.405	0.175	0.834	0.994	0.971	0.662	0.715
NCI-H1734	0.459	0.406	0.424	0.267	0.338	0.587	0.583	0.506	0.501	0.459	0.418	0.392	0.384	0.933	1.02	1.16	0.632	0.612
PC-14	0.245	0.281	0.239	0.197	0.16	0.758	0.734	0.733	0.0418	0.676	0.541	0.838	0.239	0.257	0.234	0.255	0.196	0.219
NCI-H1915	0.298	0.289	0.329	0.286	0.296	0.584	0.619	0.684	0.637	0.94	0.97	1.04	0.865	0.933	0.813	1.05	0.844	1.01
NCI-H1666	0.801	0.845	0.906	0.737	0.946	0.816	0.877	0.757	0.859	0.547	0.424	0.579	0.275	0.283	0.616	0.556	0.517	0.417
HCC-366	0.659	0.564	0.733	0.271	0.482	0.92	0.944	0.398	0.747	0.15	0.168	0.098	0.154	0.9	0.97	1.11	0.579	0.532
SK-MES-1	0.179	0.235	0.169	0.125	0.168	0.61	0.56	0.536	0.218	0.339	0.41	0.364	0.31	0.363	0.366	0.367	0.301	0.319
SW 1573	0.459	0.357	0.328	0.239	0.206	0.564	0.787	0.551	0.254	0.478	0.539	0.537	0.325	1.15	1.13	1.02	0.771	0.759
NCI-H661	0.75	0.857	0.967	0.502	0.489	0.734	0.691	0.772	0.725	0.338	0.406	0.428	0.466	0.531	0.455	0.393	–	0.369
PC-3 [JPC-3]	0.887	0.959	0.898	0.769	0.791	0.767	0.746	0.764	0.764	0.721	0.763	0.6	0.805	0.438	0.433	0.438	0.349	0.422
NCI-H1623	0.521	0.524	0.457	0.426	0.395	0.443	0.472	0.444	0.444	–	–	–	–	–	–	–	–	–
Calu-6	–	–	–	–	–	–	–	–	–	0.924	0.978	0.953	0.743	1.05	1.07	1.14	0.879	0.953
LC-2-ad	0.431	0.357	0.537	0.306	0.282	0.849	0.841	0.83	0.761	0.481	0.467	0.534	0.473	1.06	0.553	1.1	0.638	0.918
CAL-12T	0.403	0.393	0.332	0.21	0.171	0.516	0.718	0.76	0.479	0.402	0.53	0.388	0.34	0.601	–	0.529	0.272	0.578
RERF-LC-KJ	0.586	0.77	0.762	0.706	0.682	0.527	0.586	0.573	0.383	0.458	0.559	0.585	0.579	0.752	0.836	0.705	0.791	0.67

Cell Line	relative viability (AZD6482 + Dasatinib; first compound 0.08 µM)	relative viability (AZD6482 + Dasatinib; first compound 0.253 µM)	relative viability (AZD6482 + Dasatinib; first compound 0.8 µM)	relative viability (AZD6482 + Dasatinib; first compound 2.53 µM)	relative viability (AZD6482 + Dasatinib; first compound 8 µM)	relative viability ([1]; first compound 0.2 µM)	relative viability ([1]; first compound 0.6325 µM)	relative viability ([1]; first compound 2 µM)	relative viability ([1]; first compound 6.325 µM)	relative viability ([2]; first compound 0.2 µM)	relative viability ([2]; first compound 0.6325 µM)	relative viability ([2]; first compound 2 µM)	relative viability ([2]; first compound 6.325 µM)	relative viability (AZD6482 + Lapatinib; first compound 0.08 µM)	relative viability (AZD6482 + Lapatinib; first compound 0.253 µM)	relative viability (AZD6482 + Lapatinib; first compound 0.8 µM)	relative viability (AZD6482 + Lapatinib; first compound 2.53 µM)	relative viability (AZD6482 + Lapatinib; first compound 8 µM)
NCI-H1650	0.224	0.278	0.316	0.234	0.318	0.602	0.857	0.519	0.555	0.543	0.699	0.544	0.548	0.754	–	0.688	0.602	0.681
BEN	0.358	0.269	0.39	0.216	0.339	0.317	0.28	0.288	0.244	0.571	0.643	0.69	0.572	0.732	0.722	0.671	0.553	0.687
EMC-BAC-2	0.253	0.327	0.275	0.257	0.271	0.361	0.353	0.39	0.397	0.559	0.555	0.564	0.57	0.852	0.869	0.886	0.695	0.828
LU99A	0.562	0.522	0.397	0.389	0.407	0.319	0.292	0.26	0.278	0.322	0.304	0.297	0.278	0.972	0.881	0.938	0.751	0.866
ABC-1	0.5	0.591	0.699	0.496	0.53	0.479	0.583	0.444	0.336	0.618	0.926	0.699	0.611	1.07	1.16	1.07	1.03	0.932
NCI-H2170	0.482	0.424	0.585	0.544	0.486	0.802	0.711	0.695	0.682	0.353	0.371	0.288	0.284	0.245	0.249	0.303	0.248	0.295
NCI-H1299	–	–	–	–	–	–	–	–	–	0.734	0.777	1.05	0.649	0.94	0.956	1.11	0.948	0.983
EBC-1	–	–	–	–	–	–	–	–	–	0.337	0.392	0.248	0.132	0.184	0.196	0.211	0.218	0.216
NCI-H1648	–	–	–	–	–	0.258	0.318	0.313	0.275	–	–	–	–	–	–	–	–	–
ChaGo-K-1	0.647	0.501	0.79	0.589	0.532	0.572	0.604	0.564	0.501	0.752	0.87	1.12	0.49	–	–	–	–	–
HCC-44	–	–	–	–	–	0.604	0.571	0.576	0.586	0.616	0.693	0.563	0.605	0.909	1.06	1.13	1.1	0.882
A549	–	–	–	–	–	–	–	–	–	0.551	0.569	0.622	0.473	0.944	0.891	0.913	0.485	0.571
NCI-H522	0.832	0.783	0.879	0.974	0.747	0.654	0.755	0.74	0.499	–	–	–	–	–	–	–	–	–
IA-LM	–	–	–	–	–	–	–	–	–	0.342	0.389	0.419	0.322	0.898	1.13	0.903	–	0.626
NCI-H1703	–	–	–	–	–	–	–	–	–	0.25	0.225	0.266	0.16	1.11	0.871	0.654	0.448	0.484
NCI-H441	0.568	0.592	0.704	–	0.502	0.576	0.521	0.573	0.591	0.407	–	0.48	0.38	–	–	–	–	–
LCLC-103H	0.361	0.359	0.224	0.251	0.225	0.454	0.564	0.537	0.449	0.635	0.666	0.656	0.585	–	–	–	–	–
SW 900	0.446	0.419	0.462	–	0.252	0.445	0.539	0.546	0.409	–	–	–	–	–	–	–	–	–
